For four molecules, IC50 and Ki results are on record in ChEMBL document CHEMBL3425500, “Perspective: Tyrosine phosphatases as novel targets for antiplatelet therapy” (Bioorg Med Chem, 2015).

Assay [1] deals with Dual specificity protein phosphatase 3 (Homo sapiens, UniProt P51452). Nature of the assay: Inhibition of recombinant VHR (unknown origin) using OMFP as substrate after 1 hr by fluorescence assay.
Assay [2] has as its target T1, Tyrosine-protein phosphatase non-receptor type 7 (Homo sapiens, UniProt P35236).
T1 sequence (P35236 whole entry): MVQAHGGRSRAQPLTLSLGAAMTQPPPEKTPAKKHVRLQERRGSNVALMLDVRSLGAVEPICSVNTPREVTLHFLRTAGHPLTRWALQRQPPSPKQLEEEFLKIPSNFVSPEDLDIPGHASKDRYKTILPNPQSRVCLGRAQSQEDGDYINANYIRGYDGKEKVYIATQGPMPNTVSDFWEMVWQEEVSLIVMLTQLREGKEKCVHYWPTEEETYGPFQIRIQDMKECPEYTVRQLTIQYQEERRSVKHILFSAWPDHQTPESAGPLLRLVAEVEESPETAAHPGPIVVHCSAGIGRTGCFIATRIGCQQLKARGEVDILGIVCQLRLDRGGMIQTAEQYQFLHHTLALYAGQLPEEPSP
The experiment in a line: Inhibition of recombinant HePTP (unknown origin) using OMFP as substrate after 1 hr by fluorescence assay.

In assay [3] the target is T2, Tyrosine-protein phosphatase non-receptor type 1 (Homo sapiens, UniProt P18031).
T2 sequence (P18031 whole entry): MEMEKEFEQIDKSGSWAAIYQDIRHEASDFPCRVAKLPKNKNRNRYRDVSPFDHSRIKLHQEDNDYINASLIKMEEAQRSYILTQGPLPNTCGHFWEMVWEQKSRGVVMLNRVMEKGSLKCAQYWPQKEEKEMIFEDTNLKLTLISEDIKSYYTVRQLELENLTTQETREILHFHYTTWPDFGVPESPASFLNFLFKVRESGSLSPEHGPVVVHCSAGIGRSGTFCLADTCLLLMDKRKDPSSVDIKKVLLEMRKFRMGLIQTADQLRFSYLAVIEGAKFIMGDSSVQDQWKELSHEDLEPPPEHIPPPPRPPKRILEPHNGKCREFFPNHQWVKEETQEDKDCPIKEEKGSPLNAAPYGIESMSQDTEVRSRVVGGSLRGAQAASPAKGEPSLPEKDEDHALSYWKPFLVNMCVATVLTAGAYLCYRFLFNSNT
The experiment in a line: Inhibition of recombinant PTP1B (unknown origin) using OMFP as substrate after 1 hr by fluorescence assay.

Assay [4] concerns the target Receptor-type tyrosine-protein phosphatase F (Homo sapiens, UniProt P10586). The experiment in a line: Inhibition of recombinant LAR (unknown origin) using OMFP as substrate after 1 hr by fluorescence assay.
For assay [5], the target named is T3, Tyrosine-protein phosphatase non-receptor type 5 (Homo sapiens, UniProt P54829).
T3 sequence (P54829 whole entry): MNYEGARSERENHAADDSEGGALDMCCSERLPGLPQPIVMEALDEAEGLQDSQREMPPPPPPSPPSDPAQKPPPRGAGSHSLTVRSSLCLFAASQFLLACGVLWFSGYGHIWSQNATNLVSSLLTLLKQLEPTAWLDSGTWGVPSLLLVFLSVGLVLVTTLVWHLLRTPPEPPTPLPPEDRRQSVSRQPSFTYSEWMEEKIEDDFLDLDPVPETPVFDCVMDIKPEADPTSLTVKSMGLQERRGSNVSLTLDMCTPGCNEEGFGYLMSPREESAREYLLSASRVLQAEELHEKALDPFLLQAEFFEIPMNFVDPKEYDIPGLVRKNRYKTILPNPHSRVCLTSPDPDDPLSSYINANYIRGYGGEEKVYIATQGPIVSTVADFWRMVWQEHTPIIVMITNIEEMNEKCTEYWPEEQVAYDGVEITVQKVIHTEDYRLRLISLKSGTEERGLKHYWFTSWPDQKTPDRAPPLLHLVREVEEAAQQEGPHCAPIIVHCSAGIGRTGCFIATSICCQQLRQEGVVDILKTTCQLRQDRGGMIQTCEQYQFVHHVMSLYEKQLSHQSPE
The experiment in a line: Inhibition of recombinant STEP (unknown origin) using OMFP as substrate after 1 hr by fluorescence assay.

In assay [6] the target is T4, Dual specificity protein phosphatase 6 (Homo sapiens, UniProt Q16828).
T4 sequence (Q16828 whole entry): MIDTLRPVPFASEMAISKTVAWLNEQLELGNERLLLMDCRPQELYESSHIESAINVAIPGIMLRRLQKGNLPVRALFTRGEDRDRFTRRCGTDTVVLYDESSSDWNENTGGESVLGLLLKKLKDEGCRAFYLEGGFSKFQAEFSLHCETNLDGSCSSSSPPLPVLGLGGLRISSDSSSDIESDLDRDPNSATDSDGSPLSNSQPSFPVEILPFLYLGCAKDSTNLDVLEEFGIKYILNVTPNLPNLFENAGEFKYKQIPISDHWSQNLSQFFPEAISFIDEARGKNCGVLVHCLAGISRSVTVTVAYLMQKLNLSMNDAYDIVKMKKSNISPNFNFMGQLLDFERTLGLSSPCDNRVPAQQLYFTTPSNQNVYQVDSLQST
Nature of the assay: Inhibition of recombinant MKP3 (unknown origin) using OMFP as substrate after 1 hr by fluorescence assay.

Assay [7] has as its target T5, Tyrosine-protein phosphatase non-receptor type 22 (Homo sapiens, UniProt Q9Y2R2).
T5 sequence (Q9Y2R2 whole entry): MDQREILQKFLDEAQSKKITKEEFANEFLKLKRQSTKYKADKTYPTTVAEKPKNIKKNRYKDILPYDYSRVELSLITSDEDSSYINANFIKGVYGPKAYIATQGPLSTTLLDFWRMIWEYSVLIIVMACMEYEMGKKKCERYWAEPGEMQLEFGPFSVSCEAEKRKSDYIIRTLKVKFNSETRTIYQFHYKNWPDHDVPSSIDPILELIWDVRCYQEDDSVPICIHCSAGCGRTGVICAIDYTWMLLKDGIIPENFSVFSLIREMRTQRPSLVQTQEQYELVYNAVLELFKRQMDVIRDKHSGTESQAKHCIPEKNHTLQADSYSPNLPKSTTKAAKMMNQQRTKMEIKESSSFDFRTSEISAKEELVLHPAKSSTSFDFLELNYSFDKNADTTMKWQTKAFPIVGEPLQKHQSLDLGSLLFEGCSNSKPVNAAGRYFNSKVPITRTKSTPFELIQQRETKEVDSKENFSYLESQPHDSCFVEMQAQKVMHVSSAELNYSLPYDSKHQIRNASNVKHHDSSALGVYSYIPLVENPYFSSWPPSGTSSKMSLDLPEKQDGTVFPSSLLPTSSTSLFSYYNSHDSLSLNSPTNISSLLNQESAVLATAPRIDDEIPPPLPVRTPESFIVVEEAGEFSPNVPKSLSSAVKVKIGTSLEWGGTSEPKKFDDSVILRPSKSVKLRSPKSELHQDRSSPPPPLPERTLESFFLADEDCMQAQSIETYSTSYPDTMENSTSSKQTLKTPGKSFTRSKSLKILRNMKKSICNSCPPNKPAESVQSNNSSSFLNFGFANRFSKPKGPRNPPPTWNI
The experiment in a line: Inhibition of recombinant LYP (unknown origin) using OMFP as substrate after 1 hr by fluorescence assay.

For assay [8], the target named is T6, Tyrosine-protein phosphatase non-receptor type 2 (Homo sapiens, UniProt P17706).
T6 sequence (P17706 whole entry): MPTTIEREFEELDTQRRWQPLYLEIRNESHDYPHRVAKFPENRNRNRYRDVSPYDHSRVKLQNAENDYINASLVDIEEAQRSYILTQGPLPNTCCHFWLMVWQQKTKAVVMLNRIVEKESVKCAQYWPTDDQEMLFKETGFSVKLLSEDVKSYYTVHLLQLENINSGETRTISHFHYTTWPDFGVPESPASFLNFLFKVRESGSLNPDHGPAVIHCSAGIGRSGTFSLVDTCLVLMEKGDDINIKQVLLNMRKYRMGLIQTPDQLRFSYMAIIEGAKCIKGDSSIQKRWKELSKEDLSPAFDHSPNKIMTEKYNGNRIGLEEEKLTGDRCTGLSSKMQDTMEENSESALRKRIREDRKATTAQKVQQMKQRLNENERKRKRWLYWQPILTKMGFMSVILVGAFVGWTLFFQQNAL
Nature of the assay: Inhibition of recombinant TCPTP (unknown origin) using OMFP as substrate after 1 hr by fluorescence assay.

The target in assay [9] is T7, Receptor-type tyrosine-protein phosphatase C (Homo sapiens, UniProt P08575).
T7 sequence (P08575 whole entry): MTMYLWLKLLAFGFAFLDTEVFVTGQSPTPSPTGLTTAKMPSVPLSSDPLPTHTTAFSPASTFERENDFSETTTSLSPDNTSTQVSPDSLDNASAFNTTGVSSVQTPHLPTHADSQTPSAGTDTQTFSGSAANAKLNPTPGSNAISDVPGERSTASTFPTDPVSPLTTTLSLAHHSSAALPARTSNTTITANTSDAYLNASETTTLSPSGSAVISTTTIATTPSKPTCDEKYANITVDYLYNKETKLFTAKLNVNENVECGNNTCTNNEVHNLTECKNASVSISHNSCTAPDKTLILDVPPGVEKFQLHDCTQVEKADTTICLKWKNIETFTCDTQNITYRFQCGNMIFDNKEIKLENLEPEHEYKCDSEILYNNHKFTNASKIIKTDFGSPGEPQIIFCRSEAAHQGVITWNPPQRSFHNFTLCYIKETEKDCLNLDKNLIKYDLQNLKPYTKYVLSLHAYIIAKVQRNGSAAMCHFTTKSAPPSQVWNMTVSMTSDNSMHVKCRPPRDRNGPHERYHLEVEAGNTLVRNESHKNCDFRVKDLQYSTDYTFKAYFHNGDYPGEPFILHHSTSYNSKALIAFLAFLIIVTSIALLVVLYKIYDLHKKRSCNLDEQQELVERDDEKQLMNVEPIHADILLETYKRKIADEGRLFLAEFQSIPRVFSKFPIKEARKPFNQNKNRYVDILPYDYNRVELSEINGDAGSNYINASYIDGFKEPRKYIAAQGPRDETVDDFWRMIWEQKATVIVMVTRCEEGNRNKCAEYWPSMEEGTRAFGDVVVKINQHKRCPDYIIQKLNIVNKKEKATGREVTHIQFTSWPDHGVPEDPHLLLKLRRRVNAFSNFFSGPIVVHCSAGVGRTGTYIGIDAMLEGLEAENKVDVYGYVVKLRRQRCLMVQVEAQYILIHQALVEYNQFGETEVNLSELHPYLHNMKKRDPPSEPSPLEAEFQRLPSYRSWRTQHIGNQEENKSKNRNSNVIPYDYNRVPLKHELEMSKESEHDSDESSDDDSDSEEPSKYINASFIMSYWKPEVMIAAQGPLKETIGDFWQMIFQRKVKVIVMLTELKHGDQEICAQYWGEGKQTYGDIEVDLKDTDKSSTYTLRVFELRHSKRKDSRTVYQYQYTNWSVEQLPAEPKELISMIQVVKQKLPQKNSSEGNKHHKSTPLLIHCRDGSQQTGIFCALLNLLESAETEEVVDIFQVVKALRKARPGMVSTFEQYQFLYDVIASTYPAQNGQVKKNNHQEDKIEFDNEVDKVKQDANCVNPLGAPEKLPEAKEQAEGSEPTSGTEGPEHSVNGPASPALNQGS
Nature of the assay: Inhibition of recombinant CD45 (unknown origin) using OMFP as substrate after 1 hr by fluorescence assay.

The target of assay [10] is T8, Receptor-type tyrosine-protein phosphatase R (Homo sapiens, UniProt Q15256).
T8 sequence (Q15256 whole entry): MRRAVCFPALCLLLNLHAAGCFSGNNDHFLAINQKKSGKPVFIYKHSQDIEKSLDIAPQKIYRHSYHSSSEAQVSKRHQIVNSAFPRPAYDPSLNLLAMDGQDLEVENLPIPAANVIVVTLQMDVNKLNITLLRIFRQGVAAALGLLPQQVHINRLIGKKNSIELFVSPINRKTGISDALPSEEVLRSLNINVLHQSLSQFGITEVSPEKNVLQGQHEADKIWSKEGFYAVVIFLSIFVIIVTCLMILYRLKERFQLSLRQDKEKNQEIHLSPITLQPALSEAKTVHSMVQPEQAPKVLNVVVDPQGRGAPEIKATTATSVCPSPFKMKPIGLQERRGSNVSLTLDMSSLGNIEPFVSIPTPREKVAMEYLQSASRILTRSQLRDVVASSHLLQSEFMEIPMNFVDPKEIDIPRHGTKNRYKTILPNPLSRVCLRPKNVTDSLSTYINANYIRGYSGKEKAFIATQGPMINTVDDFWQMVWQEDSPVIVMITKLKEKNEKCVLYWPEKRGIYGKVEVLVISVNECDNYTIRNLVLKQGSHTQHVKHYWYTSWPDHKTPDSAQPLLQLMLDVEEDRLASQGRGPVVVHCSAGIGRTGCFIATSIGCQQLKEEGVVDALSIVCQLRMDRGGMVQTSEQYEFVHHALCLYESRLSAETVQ
The experiment in a line: Inhibition of recombinant PTP-SL (unknown origin) using OMFP as substrate after 1 hr by fluorescence assay.

Assay [11] deals with T9, Dual specificity protein phosphatase 22 (Homo sapiens, UniProt Q9NRW4).
T9 sequence (Q9NRW4 whole entry): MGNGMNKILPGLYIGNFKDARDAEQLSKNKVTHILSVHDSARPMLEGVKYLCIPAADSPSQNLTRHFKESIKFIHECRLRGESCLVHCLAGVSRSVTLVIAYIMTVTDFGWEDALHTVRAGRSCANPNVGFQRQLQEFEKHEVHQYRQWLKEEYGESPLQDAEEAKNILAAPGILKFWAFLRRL
The experiment in a line: Inhibition of recombinant VHX (unknown origin) using OMFP as substrate after 1 hr by fluorescence assay.

In assay [12] the target is T2, Tyrosine-protein phosphatase non-receptor type 1. The experiment in a line: Competitive inhibition of PTP1B (unknown origin).
Assay [13] shares this target. The experiment in a line: Inhibition of recombinant human PTP1B assessed as hydrolysis of DiFMUP preincubated for 10 mins followed by DiFMUP addition measured after 5 mins by fluorescence assay.

pIC50, pKi: −log10 of the molar value. Bounds are passed on as bounds.

Dual specificity protein phosphatase 3, sequence (P51452 whole entry): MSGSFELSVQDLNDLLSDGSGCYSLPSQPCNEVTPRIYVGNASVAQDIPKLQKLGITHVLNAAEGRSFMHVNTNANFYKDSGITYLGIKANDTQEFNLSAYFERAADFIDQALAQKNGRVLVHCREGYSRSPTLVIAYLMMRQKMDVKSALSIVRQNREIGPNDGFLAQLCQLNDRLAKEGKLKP
Receptor-type tyrosine-protein phosphatase F, sequence (P10586 whole entry): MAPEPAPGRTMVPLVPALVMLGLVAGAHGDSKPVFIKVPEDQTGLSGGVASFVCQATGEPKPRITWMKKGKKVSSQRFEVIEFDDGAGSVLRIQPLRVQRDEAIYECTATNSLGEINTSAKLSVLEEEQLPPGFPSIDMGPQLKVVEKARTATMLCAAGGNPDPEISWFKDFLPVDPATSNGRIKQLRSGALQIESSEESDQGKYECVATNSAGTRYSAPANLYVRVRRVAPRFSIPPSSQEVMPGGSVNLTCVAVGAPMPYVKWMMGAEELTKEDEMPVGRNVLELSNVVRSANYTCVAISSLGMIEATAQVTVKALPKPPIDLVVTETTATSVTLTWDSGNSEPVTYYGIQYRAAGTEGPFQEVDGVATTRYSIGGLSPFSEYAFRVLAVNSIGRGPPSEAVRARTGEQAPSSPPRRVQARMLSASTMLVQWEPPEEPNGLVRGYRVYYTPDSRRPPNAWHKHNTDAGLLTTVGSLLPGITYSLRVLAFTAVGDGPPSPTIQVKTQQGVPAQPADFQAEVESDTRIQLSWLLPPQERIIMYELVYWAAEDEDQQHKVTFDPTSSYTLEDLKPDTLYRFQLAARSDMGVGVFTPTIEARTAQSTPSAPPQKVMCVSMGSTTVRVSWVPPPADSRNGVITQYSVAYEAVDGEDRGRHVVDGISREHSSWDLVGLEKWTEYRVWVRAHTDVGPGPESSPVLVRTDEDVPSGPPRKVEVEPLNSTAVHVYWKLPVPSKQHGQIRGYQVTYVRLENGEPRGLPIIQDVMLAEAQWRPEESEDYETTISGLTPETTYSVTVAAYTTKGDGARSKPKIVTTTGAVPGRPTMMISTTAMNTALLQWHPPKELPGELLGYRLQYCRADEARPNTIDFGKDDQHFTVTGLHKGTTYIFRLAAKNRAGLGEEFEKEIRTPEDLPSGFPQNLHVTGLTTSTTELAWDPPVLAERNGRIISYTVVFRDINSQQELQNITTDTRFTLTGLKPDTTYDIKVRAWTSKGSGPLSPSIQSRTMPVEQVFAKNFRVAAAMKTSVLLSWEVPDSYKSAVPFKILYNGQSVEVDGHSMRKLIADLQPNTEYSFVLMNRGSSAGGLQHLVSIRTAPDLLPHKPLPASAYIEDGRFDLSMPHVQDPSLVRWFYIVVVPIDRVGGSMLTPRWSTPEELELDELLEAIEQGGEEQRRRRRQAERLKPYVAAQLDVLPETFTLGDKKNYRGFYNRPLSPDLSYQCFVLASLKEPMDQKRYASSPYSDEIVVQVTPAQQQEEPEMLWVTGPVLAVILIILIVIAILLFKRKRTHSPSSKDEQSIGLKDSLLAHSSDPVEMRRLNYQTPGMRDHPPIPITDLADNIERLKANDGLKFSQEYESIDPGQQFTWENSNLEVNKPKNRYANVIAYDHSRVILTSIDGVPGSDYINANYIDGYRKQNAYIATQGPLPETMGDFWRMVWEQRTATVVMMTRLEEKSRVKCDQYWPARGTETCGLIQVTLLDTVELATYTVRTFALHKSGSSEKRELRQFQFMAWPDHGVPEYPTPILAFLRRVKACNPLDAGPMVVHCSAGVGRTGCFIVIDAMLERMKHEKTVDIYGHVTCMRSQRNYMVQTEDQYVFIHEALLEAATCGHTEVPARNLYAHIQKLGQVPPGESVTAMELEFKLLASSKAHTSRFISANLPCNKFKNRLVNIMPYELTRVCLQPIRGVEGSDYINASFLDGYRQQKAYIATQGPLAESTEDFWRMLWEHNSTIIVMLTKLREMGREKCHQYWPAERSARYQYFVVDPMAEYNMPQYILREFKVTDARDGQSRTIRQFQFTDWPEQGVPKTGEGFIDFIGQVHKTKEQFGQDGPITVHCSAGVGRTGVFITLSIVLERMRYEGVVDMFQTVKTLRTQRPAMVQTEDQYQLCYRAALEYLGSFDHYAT

As for `COc1ccc(-c2nnc(Nc3nc4c(OC)cccc4s3)o2)cc1`, the pIC50 (as a rule, the negative decadic logarithm of the IC50, by convention in mol/L) in [1] is 5.57.
Regarding `COc1ccc(-c2nnc(Nc3nc4c(F)cccc4s3)o2)cc1`, the negative-log IC50 (pIC50) in [2] is 4.42; in [3], less than 4.00; in [4], less than 4.00; in assay [5] it was less than 4.00; in [6], less than 4.00; in assay [7], 4.31. For the same molecule, the pIC50 is 4.26 in [8], less than 4.00 in assay [9], 4.89 in assay [10] and 4.59 in assay [11].
Consider `CCCCCCCCCCCCCCC(=O)N[C@@H](Cc1ccc(C(F)(F)P(=O)(O)O)cc1)C(=O)N[C@@H](CC(=O)O)C(=O)N[C@@H](Cc1ccc(C(F)(F)P(=O)(O)O)cc1)C(N)=O`, for which the pKi (as a rule, the negative decadic logarithm of the Ki, by convention in mol/L) in assay [12] is 7.59.
As to `CN1C(=O)/C(=C\c2ccc(OCc3ccc(C4CCCCC4)cc3)cc2)S/C1=N/c1ccc(CC(=O)O)cc1`, in [13], the pIC50 was 6.62.
